Measurements: US20120058989A1, “ANTIBACTERIAL FLUOROQUINOLONE ANALOGS” (Achaogen, Inc., priority 2008, published 2012)

How the values were obtained:
Assay in all cases: MIC, CLSI broth microdilution
Type in all cases: cell-based
[1] = system: S. aureus ASAU1031 (Fluoroquinolone-resistant)
Outline: (§1)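 MICs were read after 20 hours at 35° C in ambient air, with a final inoculum of 5×10^5 CFU/mL from saline-suspended overnight colonies. Serial two-fold dilutions in Mueller Hinton Broth followed the CLSI reference method (M7-A7), with QC strains E. coli ATCC 25922, P. aeruginosa ATCC 27853 and S. aureus ATCC 29213.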

[2] = system: E. coli AECO066 (Fluoroquinolone-resistant)
Outline: as §1

[3] = system: E. coli AECO002 (Fluoroquinolone susceptible); conditions: Table 3
Outline: as §1

[4] = system: P. aeruginosa APAE054 (Fluoroquinolone-resistant)
Outline: as §1

[5] = system: S. pneumoniae ASPN1018 (Fluoroquinolone-resistant); conditions: Table 3
Outline: as §1

[6] = system: E. coli AECO001 (Fluoroquinolone susceptible, ATCC25922)
Outline: as §1

[7] = system: P. aeruginosa APAE001 (Fluoroquinolone-susceptible, ATCC27853)
Outline: as §1

[8] = system: S. aureus ASAU1033 (Fluoroquinolone-resistant); conditions: Table 3
Outline: as §1

[9] = system: P. aeruginosa APAE002 (Fluoroquinolone susceptible); conditions: Table 3
Outline: as §1

[10] = system: E. coli AECO086 (Fluoroquinolone-resistant); conditions: Table 3
Outline: as §1

[11] = system: S. pneumoniae ASPN001 (Fluoroquinolone-susceptible, ATCC49619)
Outline: as §1

[12] = system: A. baumannii AABA1020 (Fluoroquinolone-resistant); conditions: Table 3
Outline: as §1

[13] = system: S. pneumoniae ASPN1027 (Fluoroquinolone-resistant)
Outline: as §1

[14] = system: A. baumannii AABA1009 (Fluoroquinolone-resistant); conditions: Table 2
Outline: as §1

[15] = system: A. baumannii AABA1065 (Fluoroquinolone-susceptible)
Outline: as §1

[16] = system: S. aureus ASAU002 (Fluoroquinolone-susceptible, ATCC33591 (MRSA)); conditions: Table 3
Outline: as §1

[17] = system: S. aureus ASAU001 (Fluoroquinolone-susceptible, ATCC29213)
Outline: as §1

[18] = system: S. pneumoniae ASPN002 (Fluoroquinolone-susceptible, ATCC10813); conditions: Table 3
Outline: as §1

MIC ASAU 1031 ([1]; Table 2)	MIC ASAU 1031 ([1]; Table 3)	MIC AECO 066 ([2]; Table 2)	MIC AECO 066 ([2]; Table 3)	MIC AECO002 [3]	MIC APAE 054 ([4]; Table 2)	MIC APAE 054 ([4]; Table 3)	MIC ASPN1018 [5]	MIC AECO 001 ([6]; Table 2, 35° C., 20 hours)	MIC AECO 001 ([6]; Table 3)	MIC APAE 001 ([7]; Table 2)	MIC APAE 001 ([7]; Table 3)	MIC ASAU1033 [8]	MIC APAE002 [9]	MIC AECO086 [10]	MIC ASPN 001 ([11]; Table 2)	MIC ASPN 001 ([11]; Table 3)	MIC AABA1020 [12]	MIC ASPN 1027 ([13]; Table 3)	Structure (SMILES)	MIC ASPN 1027 ([13]; Table 2)	other results
C (MIC's of greater than 8.0 μg/mL = C)	D (MIC's of greater than 8.0 μg/mL = D)	C (MIC's of greater than 8.0 μg/mL = C)	D (MIC's of greater than 8.0 μg/mL = D)	D (MIC's of greater than 8.0 μg/mL = D)	C (MIC's of greater than 8.0 μg/mL = C)	D (MIC's of greater than 8.0 μg/mL = D)	C (MIC's of 2.0 μg/mL to 8.0 μg/mL = C)	C (MIC's of greater than 8.0 μg/mL = C)	D (MIC's of greater than 8.0 μg/mL = D)	C (MIC's of greater than 8.0 μg/mL = C)	D (MIC's of greater than 8.0 μg/mL = D)	D (MIC's of greater than 8.0 μg/mL = D)	D (MIC's of greater than 8.0 μg/mL = D)	D (MIC's of greater than 8.0 μg/mL = D)	C (MIC's of greater than 8.0 μg/mL = C)	D (MIC's of greater than 8.0 μg/mL = D)	D (MIC's of greater than 8.0 μg/mL = D)	D (MIC's of greater than 8.0 μg/mL = D)	N[C@@H]1C[C@@H]2CCCc3c(c(F)cc4c(=O)c(C(=O)O)cn(C5CC5)c34)N2C1.O=C(O)C(F)(F)F [7E/49, (7aS,9R)-9-Amino-4-cyclopropyl-12-fluoro-1-oxo-4,5,6,7,7a,8,9,10-octahydro-1H-pyrrolo[1′,2′:1,7]-azepino[2,3-h]quinoline-2-carboxylic acid trifluoroacetate]	C (MIC's of greater than 8.0 μg/mL = C)	MIC AABA 1009 [14]: C (MIC's of greater than 8.0 μg/mL = C); MIC AABA 1065 ([15]; Table 2): C (MIC's of greater than 8.0 μg/mL = C); MIC AABA 1065 ([15]; Table 3): D (MIC's of greater than 8.0 μg/mL = D); MIC ASAU002 [16]: C (MIC's of 2.0 μg/mL to 8.0 μg/mL = C); MIC ASAU 001 ([17]; Table 2): B (MIC's of greater than 1.0 μg/mL to 8.0 μg/mL = B); MIC ASAU 001 ([17]; Table 3): C (MIC's of 2.0 μg/mL to 8.0 μg/mL = C); MIC ASPN002 [18]: D (MIC's of greater than 8.0 μg/mL = D)

Structure (SMILES)	MIC ASAU 1031 ([1]; Table 2)	MIC ASAU 1031 ([1]; Table 3)	MIC AECO 066 ([2]; Table 2)	MIC AECO 066 ([2]; Table 3)	MIC AECO002 [3]	MIC APAE 054 ([4]; Table 2)	MIC APAE 054 ([4]; Table 3)	MIC ASPN1018 [5]	MIC AECO 001 ([6]; Table 2, 35° C., 20 hours)	MIC AECO 001 ([6]; Table 3)	MIC APAE 001 ([7]; Table 2)	MIC APAE 001 ([7]; Table 3)	MIC ASAU1033 [8]	MIC APAE002 [9]	MIC AECO086 [10]	MIC ASPN 001 ([11]; Table 2)	MIC ASPN 001 ([11]; Table 3)	MIC AABA1020 [12]	MIC ASPN 1027 ([13]; Table 3)	MIC ASPN 1027 ([13]; Table 2)	other results
NC1C[C@@H]2CC=Cc3c(c(F)cc4c(=O)c(C(=O)O)cn(C5CC5)c34)N2C1.O=C(O)C(F)(F)F (stereo partly drawn) [7E/50, (7aS,9)-9-Amino-4-cyclopropyl-12-fluoro-1-oxo-4,7,7a,8,9,10-hexahydro-1H-pyrrolo[1′,2′:1,7]-azepino[2,3-h]quinoline-2-carboxylic acid trifluoroacetate]	C (MIC's of greater than 8.0 μg/mL = C)	D (MIC's of greater than 8.0 μg/mL = D)	C (MIC's of greater than 8.0 μg/mL = C)	D (MIC's of greater than 8.0 μg/mL = D)	D (MIC's of greater than 8.0 μg/mL = D)	C (MIC's of greater than 8.0 μg/mL = C)	D (MIC's of greater than 8.0 μg/mL = D)	C (MIC's of 2.0 μg/mL to 8.0 μg/mL = C)	B (MIC's of greater than 1.0 μg/mL to 8.0 μg/mL = B)	C (MIC's of 2.0 μg/mL to 8.0 μg/mL = C)	C (MIC's of greater than 8.0 μg/mL = C)	D (MIC's of greater than 8.0 μg/mL = D)	D (MIC's of greater than 8.0 μg/mL = D)	D (MIC's of greater than 8.0 μg/mL = D)	D (MIC's of greater than 8.0 μg/mL = D)	B (MIC's of greater than 1.0 μg/mL to 8.0 μg/mL = B)	C (MIC's of 2.0 μg/mL to 8.0 μg/mL = C)	D (MIC's of greater than 8.0 μg/mL = D)	C (MIC's of 2.0 μg/mL to 8.0 μg/mL = C)	B (MIC's of greater than 1.0 μg/mL to 8.0 μg/mL = B)	MIC AABA 1009 [14]: C (MIC's of greater than 8.0 μg/mL = C); MIC AABA 1065 ([15]; Table 2): C (MIC's of greater than 8.0 μg/mL = C); MIC AABA 1065 ([15]; Table 3): D (MIC's of greater than 8.0 μg/mL = D); MIC ASAU002 [16]: C (MIC's of 2.0 μg/mL to 8.0 μg/mL = C); MIC ASAU 001 ([17]; Table 2): C (MIC's of greater than 8.0 μg/mL = C); MIC ASAU 001 ([17]; Table 3): D (MIC's of greater than 8.0 μg/mL = D); MIC ASPN002 [18]: C (MIC's of 2.0 μg/mL to 8.0 μg/mL = C)
N[C@@H]1CCN2c3c(F)cc4c(=O)c(C(=O)O)cn(C5CC5)c4c3C=CC[C@H]12.O=C(O)C(F)(F)F [16/16, (7aR,8R)-8-Amino-4-cyclopropyl-12-fluoro-1-oxo-4,7,7a,8,9,10-hexahydro-1H-pyrrolo[1′,2′:1,7]azepino[2,3-h]quinoline-2-carboxylic acid trifluoroacetate]	A (MIC's of 1.0 μg/mL or less = A)	A (MIC's of less than 1.0 = A)	B (MIC's of greater than 1.0 μg/mL to 8.0 μg/mL = B)	C (MIC's of 2.0 μg/mL to 8.0 μg/mL = C)	A (MIC's of less than 1.0 = A)	C (MIC's of greater than 8.0 μg/mL = C)	D (MIC's of greater than 8.0 μg/mL = D)	A (MIC's of less than 1.0 = A)	A (MIC's of 1.0 μg/mL or less = A)	A (MIC's of less than 1.0 = A)	A (MIC's of 1.0 μg/mL or less = A)	A (MIC's of less than 1.0 = A)	B (MIC's of 1.0 μg/mL to 2.0 μg/mL = B)	A (MIC's of less than 1.0 = A)	B (MIC's of 1.0 μg/mL to 2.0 μg/mL = B)	A (MIC's of 1.0 μg/mL or less = A)	A (MIC's of less than 1.0 = A)	C (MIC's of 2.0 μg/mL to 8.0 μg/mL = C)	A (MIC's of less than 1.0 = A)	B (MIC's of greater than 1.0 μg/mL to 8.0 μg/mL = B)	MIC AABA 1009 [14]: B (MIC's of greater than 1.0 μg/mL to 8.0 μg/mL = B); MIC AABA 1065 ([15]; Table 2): A (MIC's of 1.0 μg/mL or less = A); MIC AABA 1065 ([15]; Table 3): A (MIC's of less than 1.0 = A); MIC ASAU002 [16]: A (MIC's of less than 1.0 = A); MIC ASAU 001 ([17]; Table 2): A (MIC's of 1.0 μg/mL or less = A); MIC ASAU 001 ([17]; Table 3): A (MIC's of less than 1.0 = A); MIC ASPN002 [18]: A (MIC's of less than 1.0 = A)
